Data from patent US20230080144A1, “REAL-TIME FLUORESCENCE IMAGING SENSOR FOR MEASURING GLUTATHIONE IN ENDOPLASMIC RETICULUM AND METHOD USING SAME” (CELL2IN, INC., priority 2019, published 2023).

Tested on: UC-MSCs
Experiment: Cytotoxicity test (EZ-cytox)
Format: cell-based
Conditions: for IC50: 24 hours treatment at 5, 10, 20 and 40 μM, absorbance at 450 nm
Method: (1) UC-MSCs (4×10^3 cells/well) were cultured in 96-well dishes for 24 hours. (2) The cells were treated with […] of each of ER-FT derivative compounds (Formulas IV to VII) at concentrations of 5, 10, 20 and 40 μM and then incubated at 37° C. for 24 hours. (3) 10 μl of 10× EZ-cytox was added to each well, followed by incubation for 3 hours. (4) The absorbance at 450 nm was measured using a plate reader (reference wavelength: 600 to 650 nm).

Compound | toxicity (comparison among Formulas IV to VII) (24 hours) | IC50 [µM]
Cc1ccc(S(=O)(=O)NCCNC(=O)C2CCN(C(=O)C(C#N)=Cc3cc4cc5c6c(c4oc3=O)CCCN6CCC5)CC2)cc1 [Formula IV] | lowest toxicity | 43.4
N#CC(=Cc1cc2cc3c4c(c2oc1=O)CCCN4CCC3)C(=O)N1CCC(C(=O)NCCCOCCOCCOCCCNC(=O)c2c(F)c(F)c(F)c(F)c2F)CC1 [Formula VII] | – | 13.3
N#CC(=Cc1cc2cc3c4c(c2oc1=O)CCCN4CCC3)C(=O)N1CCC(C(=O)NCCNC(=O)c2c(F)c(F)c(F)c(F)c2F)CC1 [Formula VI] | – | 33.4
Cc1ccc(S(=O)(=O)NCCCOCCOCCOCCCNC(=O)C2CCN(C(=O)C(C#N)=Cc3cc4cc5c6c(c4oc3=O)CCCN6CCC5)CC2)cc1 [Formula V] | – | 36.4
